The source of these data is PubChem BioAssay (NCI).

Among the test systems are A498 renal; MALME-3M melanoma; LOX IMVI melanoma; NCI-H23 lung; MDA-MB-435; NCI-H522 lung; M14 melanoma; MDA-MB-231 breast; BT-549 breast; HT29 colon.
What all share (test): NCI anticancer screen, dose series, 48 h

Several values for one entry are separate records, joined by “and”; a condition that tells them apart may be missing. Identical values can stand only once.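 Results reflect a 48-hour exposure of cells in 96-well plates to compound at five concentrations. At the GI50, growth is halved. The concentration for full growth arrest is given as TGI.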 Some results are limits rather than exact numbers.

Consider `CN(C)CCCNC1=C(Cl)C(=O)c2ccccc2C1=O`, for which the GI50 is 12.7 µM in the assay on A498 renal; 2.06 µM in the assay on MALME-3M melanoma; 1.61 µM with LOX IMVI melanoma; 1.74 µM in the assay on NCI-H23 lung; 1.9 µM in the assay on MDA-MB-435; 2.03 µM in the assay on NCI-H522 lung. Also, the GI50 with M14 melanoma was 1.83 µM; in the assay with MDA-MB-231 breast it was 1.79 µM; with BT-549 breast, 2.14 µM; with HT29 colon, 2.5 µM. Moreover, the TGI in the assay on A498 renal came to 25.4 µM; in the assay with MALME-3M melanoma, 3.77 µM; in the assay with LOX IMVI melanoma it was 3.17 µM; in the assay on NCI-H23 lung, 3.87 µM; in the assay on MDA-MB-435 it was 3.64 µM; in the assay with NCI-H522 lung, 3.83 µM. Further, the TGI with M14 melanoma came to 3.38 µM; in the assay on MDA-MB-231 breast it was 3.94 µM; in the assay with BT-549 breast, 4.96 µM; with HT29 colon, 5.25 µM.
On to `CCOc1ccccc1-n1c(CN2CCN(C(=O)COc3ccc(CNCCCCCCN4C5CCCC4CC(OC(=O)Nc4cc(C)ccc4OC)C5)cc3)CC2)nc2ccccc2c1=O` (centres undefined), for which the GI50 is 2.11 µM with A498 renal; 1.7 µM with MALME-3M melanoma; 0.582 µM in the assay on LOX IMVI melanoma; 1.93 µM in the assay on NCI-H23 lung; 0.811 µM in the assay on MDA-MB-435; 1.79 µM in the assay on NCI-H522 lung. Also, the GI50 with M14 melanoma was 1.43 µM; in the assay with MDA-MB-231 breast, 0.815 µM; in the assay with BT-549 breast, 1.72 µM; in the assay with HT29 colon it was 0.798 µM. Moreover, the TGI in the assay with A498 renal worked out at 4.64 µM; in the assay with MALME-3M melanoma, 3.21 µM; in the assay with LOX IMVI melanoma it was 1.08 µM; in the assay with NCI-H23 lung it was 3.66 µM; in the assay with MDA-MB-435, 2.12 µM; with NCI-H522 lung, 3.45 µM. Besides, the TGI in the assay on M14 melanoma came out at 3.01 µM; in the assay with MDA-MB-231 breast it was 2.13 µM; with BT-549 breast, 3.26 µM; with HT29 colon, 2.05 µM.
With `COC(=O)[C@@H](C)C[C@H](Cc1ccc(F)cc1)NC(=O)c1csc([C@@H](C[C@H](C(C)C)N(C)C(=O)[C@@H](NC(=O)[C@H]2CCCCN2C)C(C)C)OC(C)=O)n1`, the GI50 is 0.00469 µM and 0.0202 µM in the assay with A498 renal; 4.51 µM with MALME-3M melanoma; 0.00184 µM and 0.0095 µM in the assay with LOX IMVI melanoma; 0.00355 µM and 0.0134 µM in the assay with NCI-H23 lung; 0.0002 µM with NCI-H522 lung; 0.00119 µM and 0.00539 µM in the assay with M14 melanoma. In the assay with MDA-MB-231 breast, the GI50 was 0.0023 µM and 0.0158 µM. Also, the TGI in the assay on A498 renal was 0.111 µM; in the assay on MALME-3M melanoma, above 16.7 µM; in the assay on LOX IMVI melanoma, above 16.7 µM; with NCI-H23 lung, above 16.7 µM; with MDA-MB-435, 0.00047 µM and 0.00417 µM; with NCI-H522 lung it was 0.00082 µM. Besides, the TGI with M14 melanoma was 0.763 µM and 0.079 µM; in the assay with BT-549 breast it was 0.0568 µM and 0.261 µM; with HT29 colon, above 16.7 µM.
In the case of `O=C1c2ccccc2C(=O)c2sc(Nc3cccc(Cl)c3)nc21`, the TGI in the assay on A498 renal was found to be 12.6 µM; in the assay on MALME-3M melanoma it was 2.69 µM; with LOX IMVI melanoma, 2.28 µM; with NCI-H23 lung it was 3.59 µM; in the assay with MDA-MB-435 it was 0.711 µM; in the assay with NCI-H522 lung, 3.09 µM. The TGI was determined as 3.24 µM in the assay with M14 melanoma, 3.37 µM in the assay on MDA-MB-231 breast, 3.04 µM with BT-549 breast and 8.36 µM in the assay with HT29 colon. Moreover, the results for the GI50 with MDA-MB-435, in the assay with MDA-MB-231 breast and with BT-549 breast were 0.258 µM, 0.292 µM and 1.67 µM, respectively.
As for `O=c1cc(-c2cccc(O)c2)[nH]c2cc3c(cc12)OCO3`, the TGI in the assay on A498 renal was above 100 µM; in the assay on MALME-3M melanoma it was above 100 µM; in the assay with LOX IMVI melanoma it was above 100 µM; in the assay on NCI-H23 lung it was above 100 µM; in the assay on MDA-MB-435, 0.997 µM; with NCI-H522 lung it was 0.951 µM. In addition, the TGI in the assay on M14 melanoma was above 52.5 µM; with MDA-MB-231 breast, 22.1 µM; with BT-549 breast, above 100 µM; in the assay on HT29 colon it was above 100 µM.
As to `COc1cc(C(=O)/C=C/c2sc(Cl)nc2Cl)cc(OC)c1OC`, the GI50 in the assay on A498 renal was 7.62 µM; in the assay on MALME-3M melanoma, 1.59 µM; in the assay on LOX IMVI melanoma, 1.58 µM; in the assay with NCI-H23 lung it was 1.64 µM; with MDA-MB-435, 2 µM; in the assay on NCI-H522 lung, 1.68 µM. Besides, the GI50 in the assay with M14 melanoma is 1.85 µM; with MDA-MB-231 breast it was 1.65 µM; in the assay on BT-549 breast, 1.87 µM; in the assay with HT29 colon, 2.21 µM. The TGI in the assay on A498 renal turned out to be 20.5 µM; in the assay on MALME-3M melanoma it was 3.14 µM; with LOX IMVI melanoma it was 2.97 µM; in the assay on NCI-H23 lung it was 3.04 µM; in the assay on MDA-MB-435, 4.11 µM; with NCI-H522 lung, 3.96 µM. Moreover, the TGI worked out at 3.57 µM in the assay on M14 melanoma, 3.07 µM with MDA-MB-231 breast, 3.6 µM in the assay on BT-549 breast and 5.53 µM in the assay with HT29 colon.
On to `Cc1nc2c(nc1C)C(=O)c1ccccc1C2=O`, for which the TGI with A498 renal amounted to 8.98 µM; in the assay with MALME-3M melanoma, 0.704 µM; with LOX IMVI melanoma it was 7.11 µM; in the assay on NCI-H23 lung, 2.59 µM; with MDA-MB-435, 0.365 µM; in the assay on NCI-H522 lung, 10.7 µM. Besides, the TGI amounted to 2.26 µM with M14 melanoma, 35.6 µM in the assay on MDA-MB-231 breast, 3.15 µM with BT-549 breast and 11.7 µM in the assay with HT29 colon.
With `CCc1ccc2c(c1)C(=O)c1c-2n(CCCBr)c(=O)c2cc([N+](=O)[O-])ccc12`, the GI50 with A498 renal was above 50 µM; with MALME-3M melanoma, 18.5 µM; in the assay with LOX IMVI melanoma, above 50 µM; in the assay with NCI-H23 lung, above 50 µM; in the assay with MDA-MB-435 it was above 50 µM; with NCI-H522 lung, 45.9 µM. In addition, the GI50 was above 50 µM in the assay with M14 melanoma, 45.7 µM in the assay with MDA-MB-231 breast, above 50 µM with BT-549 breast and above 50 µM with HT29 colon. Also, the TGI in the assay on A498 renal, in the assay with MALME-3M melanoma, with LOX IMVI melanoma, in the assay on NCI-H23 lung, in the assay with MDA-MB-435 and in the assay on NCI-H522 lung was above 50 µM throughout. For the same compound, the TGI in the assay on M14 melanoma, in the assay on MDA-MB-231 breast, with BT-549 breast and with HT29 colon was above 50 µM each time.
As to `COc1cc2nc(C)nc(N[C@H](C)c3cc(N)cc(C(F)(F)F)c3)c2cc1O[C@H]1CCOC1`, the GI50 in the assay on A498 renal was 0.109 µM; in the assay with MALME-3M melanoma, 18.2 µM; in the assay with LOX IMVI melanoma it was 12.2 µM; with NCI-H23 lung, 13.2 µM; in the assay with MDA-MB-435 it was 16.8 µM; in the assay with NCI-H522 lung, 12.8 µM. Further, the GI50 with M14 melanoma was 16.1 µM; in the assay with MDA-MB-231 breast, 12.1 µM; with BT-549 breast, 11.5 µM; in the assay with HT29 colon, 13.4 µM. Further, the TGI stood at 7.84 µM in the assay on A498 renal; 33.4 µM with MALME-3M melanoma; 28.1 µM in the assay with LOX IMVI melanoma; 30.6 µM with NCI-H23 lung; 30.5 µM in the assay on MDA-MB-435; 29.3 µM with NCI-H522 lung. For the same compound, the TGI in the assay on M14 melanoma stood at 31.7 µM; in the assay on MDA-MB-231 breast, 28.6 µM; in the assay on BT-549 breast, 24.2 µM; in the assay on HT29 colon, 28.4 µM.
